The source of these data is patent publication US20250034159A1, “INHIBITORS OF EPIDERMAL GROWTH FACTOR RECEPTOR” (ORIC Pharmaceuticals, Inc., priority 2021, published 2025).

Experiment [1] deals with recombinant human EGFR exon 19 deletion/C797S double mutant protein (Homo sapiens (Human), UniProt P00533, C797S/DEL746-750). Put plainly: Biological Activity Assay C: biochemical assay against EGFR exon 19 deletion/C797S protein (EGFR d19/CS). The gist of the method:
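Compounds were tested as 16-point serial dilutions (final DMSO 2.5%) with a Phosphosens peptide sensor/ATP working solution (40 uM/4 mM). The signal was read kinetically over 90 cycles at 120 s intervals. IC50s came from 4-parameter fits of per-well slopes.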

Experiment [2] relates to Ba/F3_EGFR WT cells. Kind of experiment: Biological Activity Assay D: BaF3 cell proliferation assay, EGFR wild-type (BaF3 WT). In kind it is cell-based. Particulars: Ba/F3 EGFR; Ba/F3_EGFR WT cells, ~72 hours, CellTiter-Glo; read-out: BaF3 WT IC50. (In general: Cellular ATP, detected with luciferase, serves as a proxy for viable cell number.)
Experiment [3] has as its system BaF3_EGFR LR/CS cells. Kind of experiment: Biological Activity Assay D: BaF3 cell proliferation assay, EGFR L858R/C797S mutant (BaF3 LR/CS). Type of experiment: cell-based. As to conditions: Ba/F3 EGFR; BaF3_EGFR LR/CS cells, ~72 hours, CellTiter-Glo; read-out: BaF3 LR/CS IC50.
In experiment [4] the test system is BaF3_EGFR d19/CS cells. Kind of experiment: Biological Activity Assay D: BaF3 cell proliferation assay, EGFR exon 19 deletion/C797S (BaF3 d19/CS). Type of experiment: cell-based. As to conditions: Ba/F3 EGFR; BaF3_EGFR d19/CS cells, ~72 hours, CellTiter-Glo; read-out: BaF3 d19/CS IC50.

recombinant human EGFR exon 19 deletion/C797S double mutant protein, sequence (P00533 other isoform, or with tags, fused parts or gaps C797S/del 1-668/del 746-750 limits assumed): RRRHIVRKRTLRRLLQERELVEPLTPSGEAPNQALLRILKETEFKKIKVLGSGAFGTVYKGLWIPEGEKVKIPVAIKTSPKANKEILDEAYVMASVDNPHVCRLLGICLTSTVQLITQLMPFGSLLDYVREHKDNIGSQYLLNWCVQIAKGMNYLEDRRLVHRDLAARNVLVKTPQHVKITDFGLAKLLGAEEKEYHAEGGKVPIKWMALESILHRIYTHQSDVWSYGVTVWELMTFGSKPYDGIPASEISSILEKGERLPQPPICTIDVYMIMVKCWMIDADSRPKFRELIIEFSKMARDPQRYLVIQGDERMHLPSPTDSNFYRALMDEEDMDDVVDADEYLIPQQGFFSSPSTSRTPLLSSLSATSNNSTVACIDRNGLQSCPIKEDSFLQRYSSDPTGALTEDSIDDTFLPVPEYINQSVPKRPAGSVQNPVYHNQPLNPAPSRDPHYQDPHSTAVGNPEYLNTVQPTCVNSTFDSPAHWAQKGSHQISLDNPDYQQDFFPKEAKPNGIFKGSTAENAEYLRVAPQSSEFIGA

With `Fc1ccc(-c2nn(CC3CCC(F)(F)CC3)cc2-c2ncnc3oc(-c4ccccc4)cc23)cc1` [Example 204, 4-{1-[(4,4-difluorocyclohexyl)methyl]-3-(4-fluorophenyl)-1H-pyrazol-4-yl}-6-phenylfuro[2,3-d]pyrimidine], the IC50 in experiment [1] turned out to be 0.0102 µM; in experiment [2], 8.13 µM; in experiment [3] it was 0.288 µM; in experiment [4] it was 1.22 µM.
As for `Cn1cnc(-c2cc3c(-c4cn([C@H]5C[C@H](C#N)C5)nc4-c4ccc(F)cc4)ncnc3o2)c1` [Example 270, (1r,3r)-3-{3-(4-fluorophenyl)-4-[6-(1-methyl-1H-imidazol-4-yl)furo[2,3-d]pyrimidin-4-yl]-1H-pyrazol-1-yl}cyclobutane-1-carbonitrile], the IC50 amounted to 0.000227 µM in experiment [1], 0.134 µM in experiment [2], 0.00188 µM in experiment [3] and 0.00133 µM in experiment [4].
In the same order, the values of `CS(=O)(=O)CCCn1cc(-c2ncnc3[nH]c(-c4ccccc4)nc23)c(-c2ccc(F)cc2)n1` [Example 215, 6-{3-(4-fluorophenyl)-1-[3-(methanesulfonyl)propyl]-1H-pyrazol-4-yl}-8-phenyl-9H-purine] are 0.00026 µM, 2.34 µM, 0.0308 µM and 0.0835 µM.
In the same order, the values of `CC(=O)N1CCN(c2cc3c(-c4cn(C5CS(=O)(=O)C5)nc4-c4ccc(F)cc4)ncnc3o2)CC1` [Example 149, 3-{4-[6-(4-acetylpiperazin-1-yl)furo[2,3-d]pyrimidin-4-yl]-3-(4-fluorophenyl)-1H-pyrazol-1-yl}-1λ6-thietane-1,1-dione] are 0.00372 µM, greater than 20 µM, 2.77 µM and 1.16 µM.
Take `Cc1cc(-c2cc3c(-c4cn(C5CS(=O)(=O)C5)nc4-c4ccc(F)cc4)ncnc3o2)n(C)n1` [Example 243, 3-{4-[6-(1,3-dimethyl-1H-pyrazol-5-yl)furo[2,3-d]pyrimidin-4-yl]-3-(4-fluorophenyl)-1H-pyrazol-1-yl}-16-thietane-1,1-dione]: the IC50 in experiment [1] is 0.00037 µM; in experiment [2], 1.2 µM; in experiment [3] it was 0.093 µM; in experiment [4], 0.0878 µM.
In the same order, the values of `CS(=O)(=O)[C@H]1C[C@H](n2cc(-c3ncnc4oc(-c5ccccc5)cc34)c(-c3ccc(F)cc3)n2)C1` [Example 194, 4-{3-(4-fluorophenyl)-1-[(1r,3r)-3-(methanesulfonyl)cyclobutyl]-1H-pyrazol-4-yl}-6-phenylfuro[2,3-d]pyrimidine] are 0.00083 µM, 3.61 µM, 0.175 µM and 0.274 µM.
For `O=S1(=O)CC(n2cc(-c3ncnc4oc(-c5nccs5)cc34)c(-c3ccc(F)cc3)n2)C1` [Example 248, 3-{3-(4-fluorophenyl)-4-[6-(1,3-thiazol-2-yl)furo[2,3-d]pyrimidin-4-yl]-1H-pyrazol-1-yl}-16-thietane-1,1-dione] the same measures were 0.00042 µM, 2.55 µM, 0.1 µM and 0.0927 µM.
In the same order, the values of `CC(C)(O)Cn1cc(-c2ncnc3oc(-c4ccccc4Cl)cc23)c(-c2ccc(F)cc2)n1` [Example 262, 1-{4-[6-(2-chlorophenyl)furo[2,3-d]pyrimidin-4-yl]-3-(4-fluorophenyl)-1H-pyrazol-1-yl}-2-methylpropan-2-ol] are 0.000396 µM, 4.06 µM, 0.0782 µM and 0.047 µM.
In the case of `CS(=O)(=O)[C@H]1CC[C@@H](n2cc(-c3ncnc4oc(-c5ccccc5)cc34)c(-c3ccc(F)cc3)n2)C1` (single isomer, unassigned) [Example 193], the IC50 worked out at 0.00164 µM in experiment [1], 3.04 µM in experiment [2], 0.174 µM in experiment [3] and 0.259 µM in experiment [4].
For `Cn1cnc(-c2cc3c(-c4cn([C@H]5C[C@@H](F)C5)nc4-c4ccc(F)cc4)ncnc3o2)c1` [Example 264, 4-{1-[(1s,3s)-3-fluorocyclobutyl]-3-(4-fluorophenyl)-1H-pyrazol-4-yl}-6-(1-methyl-1H-imidazol-4-yl)furo[2,3-d]pyrimidine] the same measures were 0.000135 µM, 0.448 µM, 0.00654 µM and 0.00885 µM.
In the same order, the values of `CC(=O)N1CC[C@@H](n2cc(-c3ncnc4oc(-c5ccccc5)cc34)c(-c3ccc(F)cc3)n2)C1` (single isomer, unassigned) [Example 128] are 0.00041 µM, 1.74 µM, 0.105 µM and 0.125 µM.
Consider `CS(=O)(=O)[C@@H]1CC[C@H](n2cc(-c3ncnc4oc(-c5ccccc5)cc34)c(-c3ccc(F)cc3)n2)C1` (single isomer, unassigned) [Example 192], for which the IC50 in experiment [1] came out at 0.00097 µM; in experiment [2] it was 3.07 µM; in experiment [3], 0.196 µM; in experiment [4], 0.26 µM.
In the same order, the values of `Fc1ccc(-c2nn(CC3CC(F)(F)C3)cc2-c2ncnc3oc(-c4ccccc4)cc23)cc1` [Example 123, 4-{1-[(3,3-difluorocyclobutyl)methyl]-3-(4-fluorophenyl)-1H-pyrazol-4-yl}-6-phenylfuro[2,3-d]pyrimidine] are 0.00289 µM, 3.89 µM, 0.0961 µM and 0.26 µM.
For `C[C@H]1OCC[C@@H]1n1cc(-c2ncnc3oc(-c4ccccc4)cc23)c(-c2ccc(F)cc2)n1` (single isomer, unassigned) [Example 214] the same measures were 0.00088 µM, 2.51 µM, 0.136 µM and 0.303 µM.
In the same order, the values of `Cn1cnc(-c2cc3c(-c4cn([C@H]5C[C@H](O)C5)nc4-c4ccc(F)cc4)ncnc3o2)c1` [Example 278, (1r,3r)-3-{3-(4-fluorophenyl)-4-[6-(1-methyl-1H-imidazol-4-yl)furo[2,3-d]pyrimidin-4-yl]-1H-pyrazol-1-yl}cyclobutan-1-ol] are 0.000123 µM, 0.272 µM, 0.00514 µM and 0.00431 µM.
For the molecule `C[C@]1(O)C[C@@H](Cn2cc(-c3ncnc4oc(-c5ccccc5)cc34)c(-c3ccc(F)cc3)n2)C1` [Example 162, (1s,3s)-3-{[3-(4-fluorophenyl)-4-(6-phenylfuro[2,3-d]pyrimidin-4-yl)-1H-pyrazol-1-yl]methyl}-1-methylcyclobutan-1-ol], the IC50 was found to be 0.00044 µM in experiment [1], 1.36 µM in experiment [2], 0.0106 µM in experiment [3] and 0.0639 µM in experiment [4].
In the same order, the values of `Cc1nc(-c2cc3c(-c4cn(C5CS(=O)(=O)C5)nc4-c4ccc(F)cc4)ncnc3o2)cs1` [Example 236, 3-{3-(4-fluorophenyl)-4-[6-(2-methyl-1,3-thiazol-4-yl)furo[2,3-d]pyrimidin-4-yl]-1H-pyrazol-1-yl}-16-thietane-1,1-dione] are 0.00016 µM, 0.924 µM, 0.0112 µM and 0.0171 µM.
In the same order, the values of `CC(C)(C)OC(=O)N1C=C(c2cc3c(-c4cn(C5CS(=O)(=O)C5)nc4-c4ccc(F)cc4)ncnc3o2)CCC1` [Example 139, tert-butyl 5-{4-[1-(1,1-dioxo-1λ6-thietan-3-yl)-3-(4-fluorophenyl)-1H-pyrazol-4-yl]furo[2,3-d]pyrimidin-6-yl}-3,4-dihydropyridine-1(2H)-carboxylate] are 0.00855 µM, 10.3 µM, 0.574 µM and 0.551 µM.
For `CNC(=O)Cn1cc(-c2ncnc3oc(-c4ccccc4)cc23)c(-c2ccc(F)cc2)n1` [Example 143, 2-[3-(4-Fluorophenyl)-4-(6-phenylfuro[2,3-d]pyrimidin-4-yl)-1H-pyrazol-1-yl]-N-methylacetamide] the same measures were 0.00038 µM, 0.663 µM, 0.0598 µM and 0.0943 µM.
As to `CC1(C)CC(Cn2cc(-c3ncnc4oc(-c5ccccc5)cc34)c(-c3ccc(F)cc3)n2)O1` (stereo not shown) [Example 220, 4-{1-[(4,4-dimethyloxetan-2-yl)methyl]-3-(4-fluorophenyl)-1H-pyrazol-4-yl}-6-phenylfuro[2,3-d]pyrimidine], the IC50 in experiment [1] is 0.00055 µM; in experiment [2], 1.04 µM; in experiment [3], 0.0372 µM; in experiment [4] it was 0.111 µM.
`NC(=O)c1cccc(-c2cc3c(-c4cn(C5CS(=O)(=O)C5)nc4-c4ccc(F)cc4)ncnc3o2)c1` [Example 176, 3-{4-[1-(1,1-dioxo-1λ6-thietan-3-yl)-3-(4-fluorophenyl)-1H-pyrazol-4-yl]furo[2,3-d]pyrimidin-6-yl}benzamide]: the IC50 in experiment [1] is 0.00036 µM; in experiment [2], 2.54 µM; in experiment [3], 0.134 µM; in experiment [4] it was 0.14 µM.
For `CC(C)(O)Cn1cc(-c2ncnc3oc(-c4cccnc4)cc23)c(-c2ccc(F)cc2)n1` [Example 255, 1-{3-(4-fluorophenyl)-4-[6-(pyridin-3-yl)furo[2,3-d]pyrimidin-4-yl]-1H-pyrazol-1-yl}-2-methylpropan-2-ol] the same measures were 0.00047 µM, 1.7 µM, 0.051 µM and 0.0324 µM.
